Patent publication US12109221B2, “Combination therapy for treating cancer” (LEUKOS BIOTECH, S.L., priority 2017, dated 2024)

What was measured:
[1] = test system: MonoMac-1 AML cells; assay: In vivo xenotransplantation assay, human AML cells in bones by flow cytometry; parameters: species or system NSG mice; settings: 5 mg/kg apomorphine and 30 mg/kg cytarabine, intraperitoneally, 5 days
Description: FIG. 4. […] Bulsulfan-conditioned NSG adult mice were intravenously injected with 1×10^6 MonoMac-1 AML cells. One week after transplantation, mice were treated with 5 mg/kg apomorphine (APO) and/or 30 mg/kg cytarabine (CYT) daily for 5 days. Mice were culled and bones were harvested. Human leukemia cells were detected based on the expression of hCD45 on the surface membrane by flow cytometry. Normalized number of human AML cells against control-treated mice is represented. Bars correspond to mean values and error bars to SEM. ** p<0.01; **** p<0.0001. hAML: #human AML cells (referred to 15 control). CTR: Control.
In order to verify that the synergic cytotoxic effect was also detectable in vivo, pharmacological-conditioned NSG mice were transplanted intravenously with 1×10^6 MonoMac-1 AML cells. One week after transplantation, mice were treated for 5 days with 5 mg/kg apomorphine and/or 30 mg/kg cytarabine, both of them intraperitoneally. Mice were culled and bones were harvested and analyzed for human leukemia by flow cytometry.

[2] = test system: Sp1 gene expression in HL-60 AML cells; assay: Sp1 mRNA expression by semi-quantitative PCR; format: cell-based, human; settings: HL-60 cells, 72 h; 10 µM apomorphine, 10 µM methiothepin, 5 µM SB224289
Description: FIG. 7. Treatment with HTR1 antagonists decreased Sp1 gene expression. HL-60 AML cells were treated with 10 μM apomorphine (APO), 10 μM methiothepin (MET) or 5 μM SB224289 (SB9) for 72 h. Total RNA was isolated and cDNA was obtained afterwards. Semi-quantitative PCR was performed to detect gene expression. Sp1 gene expression is represented as 2^(−ΔΔCt) using GAPDH as the endogenous control. Bars represent the mean value of triplicates. Error bars correspond to SEM. * p<0.05; **** p<0.0001. ddCt: 2^(−ΔΔCt).
At a gene expression level, the expression of Sp1 mRNA was studied. Sp1 has been implicated with chemotherapeutic resistance (Zhang et al. Mol Cancer 2015; 14:56). HL-60 AML cells were treated for 72 h with 10 µM apomorphine, 10 µM methiothepin and 5 µM SB224289. Total RNA as isolated and mRNA was retrotranscribed to cDNA. Semi-quantitative PCR was performed with specific TaqMan oligo pairs.

[3] = test system: AML cell lines (HL-60 and MonoMac-1); assay: Cell viability by flow cytometry 72 h after treatment, HTR1 antagonist plus azacitidine or decitabine, combination index; format: cell-based, human
Description: FIGS. 2A and 2B. […] MonoMac-1 cells were cultured for 72 h in a complete RPMI medium in the presence of 2, 5, 10 μM apomorphine (APO) or methiothepin (MET), and 100, 200, 1000 nM azacitidine (AZA). FIG. 2A. Cell viability was measured by flow cytometry (correct FSC-SSC profile, 7-AAD-, Hoechst33342^low). Normalized number of live cells is graphed. Bars represent the mean value and error bars represent SEM. *** p<0.001; **** p<0.0001. NLC: Number of live cells (referred to control). FIG. 2B. Combination index (CI) value of each combination.
FIGS. 3A and 3B. […] Cell viability was measured by flow cytometry (correct FSC-SSC profile, 7-AAD-, Hoechst33342^low). […]
Synergy is determined herein by means of the Combination Index Model, described previously (Chou T C, Pharmacological Reviews 58: 621-681, 2006). The CI was measured using Compusyn open software. […]
Next, the inventors examined the interaction between HTR1 antagonists and azacitidine. […] Cell viability was measured by flow cytometry (live cells according to the correct FSC-SSC profile, 7-AAD negativity and Hoechst 33342 positivity) 72 h after treatment.
Similarly, decitabine was also interrogated for its potential cytotoxic interaction with HTR1 antagonists. […] 72 h after treatment, cell viability was measured by flow cytometry (live cells according to the correct FSC-SSC profile, 7-AAD negativity and Hoechst 33342 positivity).

[4] = test system: AML cell line (MonoMac-1); assay: Cell viability by flow cytometry 72 h after treatment, HTR1 antagonist plus cladribine, fludarabine or methotrexate, combination index; format: cell-based, human
Description: FIGS. 8A and 8B. […] MonoMac-1 cells were cultured for 72 h in a complete RPMI medium in the presence of 5, 10 μM apomorphine (APO) or methiothepin (MET), and 10, 27, 55 nM cladribine (CLD). FIG. 8A. Combination index (CI) value of CLD and APO combination. FIG. 8B. CI value of CLD and MET combination.
FIGS. 9A and 9B. […] MonoMac-1 cells were cultured for 72 h in a complete RPMI medium in the presence of 5, 10 μM apomorphine (APO) or methiothepin (MET), and 200, 500, 1000 nM fludarabine (FLD). FIG. 9A. CI value of FLD and APO combination. FIG. 9B. CI value of FLD and MET combination.
FIG. 10. […] MonoMac-1 cells were cultured for 72 h in a complete RPMI medium in the presence of 5, 10 μM apomorphine (APO), and 2.5, 6.25, 12.5 nM methotrexate (MTX). CI value of MTX and APO combination.
(§1) Synergy is determined herein by means of the Combination Index Model, described previously (Chou T C, Pharmacological Reviews 58: 621-681, 2006). The CI was measured using Compusyn open software. CI values below 1 indicate synergism. CI values about 1 indicate additivism and CI values above 1 indicate antagonisms.
Cladribine is a cytostatic drug indicated for myeloid neoplasias. […] 72 h after treatment, cell viability was measured by flow cytometry (live cells according to the correct FSC-SSC profile, 7-AAD negativity and Hoechst 33342 positivity, and volumetrically counted).
The potential cytotoxic interaction of fludarabine with HTR1 antagonists was also examined on the same experimental conditions of the example 8. […] 72 h after treatment, cell viability was measured by flow cytometry (live cells according to the correct FSC-SSC profile, 7-AAD negativity and Hoechst 33342 positivity, and volumetrically counted).
Finally, the interaction of the antineoplastic drug methotrexate with HTR1 antagonist was studied. […] 72 h after treatment, cell viability was measured by flow cytometry (live cells according to the correct FSC-SSC profile, 7-AAD negativity and Hoechst 33342 positivity, and volumetrically counted).

[5] = test system: KG-1 and Ara-C-resistant KG-1; assay: Sensitivity to HTR1 antagonists, parental versus Ara-C-resistant cells, cell viability by flow cytometry; format: cell-based, human; settings: KG-1 parental vs Ara-C-resistant KG-1; 72 h
[6] = test system: HL-60 and Ara-C-resistant HL-60; assay: as above; format: cell-based, human; settings: HL-60 parental vs Ara-C-resistant HL-60; 72 h
[7] = test system: AML cell lines (TPH-1 and MonoMac1); assay: Cell viability by flow cytometry 72 h after treatment, HTR1 antagonist plus cytarabine, combination index; format: cell-based, human; settings: in combination with cytarabine, CI below 1 = synergism
Description: FIGS. 1A and 1B. […] FIG. 1A. Cell viability was measured by flow cytometry (correct FSC-SSC profile, 7-AAD-, Hoechst33342^low). Normalized number of live cells is graphed. Bars represent the mean value and error bars represent SEM. *** p<0.001; **** p<0.0001. NLC: Number of live cells (referred to control). FIG. 1B. Combination index (CI) value of each combination.
as §1

Nc1ccn([C@@H]2O[C@H](CO)[C@H](O)[C@@H]2O)c(=O)n1 [Ara-C, 4-amino-1-[(2R,3S,4R,5R)-3,4-dihydroxy-5 (hydroxymethyl)oxolan-2-yl]pyrimidin-2-one]
effect of the combination in in vivo treatment of AML-bearing mice [1]: synergistic effect

Cc1nc(-c2ccc(-c3ccc(C(=O)N4CCc5cc6c(cc54)C4(CCN(C)CC4)CO6)cc3)c(C)c2)no1 [SB224289]
Sp1 gene expression [2]: downregulation of Sp1 gene expression

CN1CCc2cccc3c2[C@H]1Cc1ccc(O)c(O)c1-3 [apomorphine, (6aR)-6-methyl-5,6,6a, 7-tetrahydro-4H-dibenzo[de, g]quinoline-10,11-diol]
interaction with azacitidine (combination index) ([3]; in combination with azacitidine): synergically anti-leukemic effect | interaction with decitabine (combination index) ([3]; in combination with decitabine): synergically anti-leukemic effect | interaction with cladribine (combination index) ([4]; in combination with cladribine): synergically anti-leukemic effect | interaction with fludarabine (combination index) ([4]; in combination with fludarabine): synergically antileukemic effect | interaction with methotrexate (combination index) ([4]; in combination with methotrexate, low and high concentrations): synergically anti-leukemic effect | EC50, parental compared to Ara-C-resistant cells [5]: equivalent EC50 values | Sp1 gene expression [2]: downregulation of Sp1 gene expression | effect of the combination in in vivo treatment of AML-bearing mice [1]: synergistic effect | EC50, parental compared to Ara-C-resistant cells [6]: equivalent EC50 values | interaction with cytarabine according to the combination index model [7]: act synergically
